IC50 data for 26 compounds are collected here from patent US20180273538A1, “PYRROLO[2,3-d]PYRIMIDINE DERIVATIVES, A PROCESS FOR THEIR PREPARATION AND PHARMACEUTICAL COMPOSITIONS CONTAINING THEM” (LES LABORATOIRES SERVIER, priority 2015, published 2018).

The target in this assay is T1, His-TEV-DYRK1A Kinase domain (aa127-485) (Homo sapiens, UniProt Q13627).
T1 construct: His-TEV-DYRK1A Kinase domain (aa127-485); His (N); TEV cleavage site (N)
Briefly: Kinase ADP assay (ADP Hunter Plus). Type of assay: biochemical.
What is called IC50 is the concentration needed to halve the response being measured. As for `Cc1nc(N2CCC3(CCCCC3)CC2)c2c(-c3ccnc(N)c3)c[nH]c2n1` [Example 101, 4-[4-(3-azaspiro[5.5]undec-3-yl)-2-methyl-7H-pyrrolo[2,3-d]pyrimidin-5-yl]pyridin-2-amine], the 50% inhibitory concentration (IC50) was 0.034 µM. Then `Cc1nc(N2CCC3(CCC(C)CC3)C2)c2c(-c3ccnc(N)c3)c[nH]c2n1` (centres unmarked) [Example 102, 4-[2-methyl-4-(8-methyl-2-azaspiro[4.5]dec-2-yl)-7H-pyrrolo[2,3-d]pyrimidin-5-yl]pyridin-2-amine], with 0.293 µM. Turning to `Cc1nc(N2CCC2c2ccccc2)c2c(-c3ccnc(N)c3)c[nH]c2n1` (centres unmarked) [Example 103, 4-[2-methyl-4-(2-phenylazetidin-1-yl)-7H-pyrrolo[2,3-d]pyrimadin-5-yl]pyridin-2-amine], the IC50 was determined as 0.694 µM.

For the compound `Cc1nc(N2CCC(C(F)(F)F)CC2)c2c(-c3ccnc(N)c3)c[nH]c2n1` [Example 105, 4-{2-methyl-4-[4-(trifluoromethyl)piperidin-1-yl]-7H-pyrrolo[2,3-d]pyrimidin-5-yl}pyridin-2-amine], the IC50 turned out to be 0.121 µM. On to `Cc1nc(N2CCCC2C(F)(F)F)c2c(-c3ccnc(N)c3)c[nH]c2n1` (centres unmarked) [Example 107, 4-{2-methyl-4-[2-(trifluoromethyl)pyrrolidin-1-yl]-7H-pyrrolo[2,3-d]pyrimidin-5-yl}pyridin-2-amine], for which the half-maximal inhibitory concentration (IC50) came to 0.666 µM.

Consider `Cc1nc(N2CC3(CCCCC3)C2)c2c(-c3ccnc(N)c3)c[nH]c2n1` [Example 109, 4-[4-(2-azaspiro[3.5]non-2-yl)-2-methyl-7H-pyrrolo[2,3-d]pyrimidin-5-yl]pyridin-2-amine], for which the 50% inhibitory concentration (IC50) amounted to 0.524 µM. Consider `Cc1nc(N2CC[C@H]3CCCC[C@H]3C2)c2c(-c3ccnc(N)c3)c[nH]c2n1` [Example 110], for which the 50% inhibitory concentration (IC50) was found to be 0.048 µM. Next, `Cc1nc(N2CC[C@H]3CCCC[C@@H]3C2)c2c(-c3ccnc(N)c3)c[nH]c2n1` [Example 111, 4-{2-methyl-4-[(4aR,8aS)-octahydro-isoquinolin-2(1H)-yl]-7H-pyrrolo[2,3-d]pyrimidin-5-yl}pyridin-2-amine]: 0.013 µM; `Cc1nc(NCC2COc3ccccc32)c2c(-c3ccnc(N)c3)c[nH]c2n1` (centres unmarked) [Example 112, 5-(2-aminopyridin-4-yl)-N-(2,3-dihydro-1-benzofuran-3-ylmethyl)-2-methyl-7H-pyrrolo[2,3-d]pyrimidin-4-amine]: 0.234 µM; `COc1cccnc1C(C)Nc1nc(C)nc2[nH]cc(-c3ccnc(N)c3)c12` (centres unmarked) [Example 113, 5-(2-aminopyridin-4-yl)-N-[1-(3-methoxypyridin-2-yl)ethyl]-2-methyl-7H-pyrrolo[2,3-d]pyrimidin-4-amine]: 0.114 µM. Next, `Cc1nc(N[C@@H]2CCc3ccccc32)c2c(-c3cc(N)nc(N)c3)c[nH]c2n1` [Example 118, 4-{4-[(1R)-2,3-dihydro-1H-inden-1-ylamino]-2-methyl-7H-pyrrolo[2,3-d]pyrimidin-5-yl}pyridine-2,6-diamine]: 0.011 µM; `Cc1nc(N(C)Cc2c(F)cccc2F)c2c(-c3ccnc(N)c3)c[nH]c2n1` [Example 120, 5-(2-aminopyridin-4-yl)-N-(2,6-diflurobenzyl)-N,2-dimethyl-7H-pyrrolo[2,3-d]pyrimidin-4-amine]: 0.115 µM. For `CCC(Nc1nc(C)nc2[nH]cc(-c3ccnc(N)c3)c12)c1ncccc1F` (centres unmarked) [Example 121, 5-(2-aminopyridin-4-yl)-N-[1-(3-fluoropyridin-2-yl)propyl]-2-methyl-7H-pyrrolo[2,3-d]pyrimidin-4-amine], the IC50 is 0.066 µM. Then `Cc1nc(N[C@@H](C)c2ncccc2F)c2c(-c3ccnc(N)c3)c[nH]c2n1` [Example 122, 5-(2-aminopyridin-4-yl)-N-[(1S)-1-(3-fluoropyridin-2-yl)ethyl]-2-methyl-7H-pyrrolo[2,3-d]pyrimidin-4-amine], with 0.05 µM.

As to `Cc1nc(NCCc2ccccn2)c2c(-c3ccnc(N)c3)c[nH]c2n1` [Example 124, 5-(2-aminopyridin-4-yl)-2-methyl-N-[2-(pyridin-2-yl)ethyl]-7H-pyrrolo[2,3-d]pyrimidin-4-amine], the half-inhibitory concentration (IC50) is 0.296 µM. Next, `Cc1nc(N2C[C@@H](C)O[C@@H](C)C2)c2c(-c3cc(N)nc(N)c3)c[nH]c2n1` [Example 126, 4-{4-[(2R,6S)-2,6-dimethylmorpholin-4-yl]-2-methyl-7H-pyrrolo[2,3-d]pyrimidin-5-yl}pyridine-2,6-diamine + 4-{4-[(2S,6R)-2,6-dimethylmorpholin-4-yl]-2-methyl-7H-pyrrolo[2,3-d]pyrimidin-5-yl}pyridine-2,6-diamine]: 0.418 µM; `Cc1nc(Nc2ccccc2)c2c(-c3ccnc(N)c3)c[nH]c2n1` [Example 129, 5-(2-aminopyridin-4-yl)-2-methyl-N-phenyl-7H-pyrrolo[2,3-d]pyrimidin-4-amine]: 0.072 µM. Then `Cc1nc(Nc2ccccc2C(F)(F)F)c2c(-c3ccnc(N)c3)c[nH]c2n1` [Example 130, 5-(2-aminopyridin-4-yl)-2-methyl-N-[2-(trifluoromethyl)phenyl]-7H-pyrrolo[2,3-d]pyrimidin-4-amine], with 0.26 µM; and `Cc1nc(Nc2ccccc2C(F)(F)F)c2c(-c3cc(N)nc(N)c3)c[nH]c2n1` [Example 131, 4-(2-methyl-4-{[2-(trifluoromethyl)phenyl]amino}-7H-pyrrolo[2,3-d]pyrimidin-5-yl)pyridine-2,6-diamine], with 0.6 µM; and `COC1CCN(c2nc(C)nc3[nH]cc(-c4ccnc(N)c4)c23)CC1` [Example 133, 4-[4-(4-methoxypiperidin-1-yl)-2-methyl-7H-pyrrolo[2,3-d]pyrimidin-5-yl]pyridin-2-amine], with 0.269 µM. Regarding `Cc1nc(N2CCOCC2)c2c(-c3ccnc(N)c3)c[nH]c2n1` [Example 134, 4-[2-methyl-4-(morpholin-4-yl)-7H-pyrrolo[2,3-d]pyrimidin-5-yl]pyridin-2-amine], the half-maximal inhibitory concentration (IC50) is 0.848 µM. As to `Cc1nc(N2CCn3ccnc3C2)c2c(-c3ccnc(N)c3)c[nH]c2n1` [Example 135, 4-[4-(5,6-dihydroimidazo[1,2-a]pyrazin-7(8H)-yl)-2-methyl-7H-pyrrolo[2,3-d]pyrimidin-5-yl]pyridin-2-amine], the IC50 is 0.091 µM. Consider `Cc1nc(N2CCc3nccnc3C2)c2c(-c3ccnc(N)c3)c[nH]c2n1` [Example 136, 4-[4-(7,8-dihydropyrido[3,4-b]pyrazin-6(5H)-yl)-2-methyl-7H-pyrrolo[2,3-d]primidin-5-yl]pyridin-2-amine], for which the IC50 came out at 0.169 µM.

`Cc1nc(N2CCOC(C)C2)c2c(-c3ccnc(N)c3)c[nH]c2n1` (centres unmarked) [Example 137, 4-[2-methyl-4-(2-methylmorpholin-4-yl)-7H-pyrrolo[2,3-d]pyrimidin-5-yl]pyridin-2-amine]: the IC50 was found to be 0.336 µM. As to `COC1CCCN(c2nc(C)nc3[nH]cc(-c4ccnc(N)c4)c23)C1` (centres unmarked) [Example 138, 4-[4-(3-methoxypiperidin-1-yl)-2-methyl-7H-pyrrolo[2,3-d]pyrimidin-5-yl]pyridin-2-amine], the IC50 is 0.407 µM.

In the case of `COC1CCN(c2nc(C)nc3[nH]cc(-c4cc(N)nc(N)c4)c23)CC1` [Example 139, 4-[4-(4-methoxypiperidin-1-yl)-2-methyl-7H-pyrrolo[2,3-d]pyrimidin-5-yl]pyridine-2,6-diamine], the concentration for half-maximal inhibition (IC50) was determined as 0.883 µM.
